This note sets out measurements from patent US9643953B2, “Substituted benzylpyrazoles” (Bayer Intellectual Property GmbH, priority 2011, dated 2017).

In one test the test system is HeLa cell line. The test can be described thus: Proliferation assay (HeLa cell line).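 Also: crystal violet staining of cell number, absorbance read at 595 nm, compounds tested at 0.001–10 µM, zero-point plate taken as 0% and untreated cells as 100%, four-parameter fit.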 The following applies: Homo sapiens, HeLa, 96 h.
Test [1] has as its target T1, catalytic domain of human Bub1 (amino acids 704-1085) (Homo sapiens, UniProt O43683).
T1 construct: catalytic domain of human Bub1 (amino acids 704-1085); His6 (N); made in house; host or cells: Hi5 insect cells
The test can be described thus: Bub1 kinase assay (TR-FRET). The test is classed as biochemical. The following applies: ATP 10 μM, peptide substrate 1 μM, 60 min at 22° C. How it is done:
To this end, 100-fold concentrated compound solutions (in DMSO) were previously prepared by serial dilution (1:3.4) of 2 mM stocks in a clear low volume 384-well source microtiter plate (Greiner Bio-One, Frickenhausen, Germany), from which 50 nl of compounds were transferred into a black low volume test microtiter plate from the same supplier. […] The resulting mixture (5 μl final volume) was incubated at 22° C. during 60 min., and the reaction was stopped by the addition of 5 μl of an aqueous EDTA-solution (50 mM EDTA, in 100 mM HEPES pH 7.5 and 0.2% (w/v) bovine serum albumin) which also contained the TR-FRET detection reagents (0.2 μM streptavidin-XL665 [Cisbio Bioassays, Codolet, France] and 1 nM anti-phosho-Serine antibody [Merck Millipore, cat. #35-001] and 0.4 nM LANCE EU-W1024 labeled anti-mouse IgG antibody [Perkin-Elmer, product no. AD0077, alternatively a Terbium-cryptate-labeled anti-mouse IgG antibody from Cisbio Bioassays can be used]). The stopped reaction mixture was further incubated 1 h at 22° C. in order to allow the formation of complexes between peptides and detection reagents. Subsequently, the amount of product was evaluated by measurement of the resonance energy transfer from the Eu-chelate-antibody complex recognizing the Phosphoserine residue to the streptavidin-XL665 bound to the biotin moiety of the peptide. […] IC50 values were calculated by fitting the normalized inhibition data to a 4-parameter logistic equation (Minimum, Maximum, IC50, Hill; Y=Max+(Min−Max)/(1+(X/IC50)Hill)).

In another test the test system is B16F10 cell line. The test is described as follows: Proliferation assay (B16F10 cell line). The following applies: Mus musculus, B16-F10, 96 h, read-out: Biological Assay 2: Proliferation assay (B16F10 cell line) median IC50.
A further test deals with H460 cell line. The test is described as follows: Proliferation assay (H460 cell line). The following applies: Homo sapiens, NCI-H460, 96 h, read-out: Biological Assay 2: Proliferation assay (H460 cell line) median IC50.
A further test concerns HeLa-MaTu-ADR cell line. The test can be described thus: Proliferation assay (HeLa-MaTu-ADR cell line). The following applies: 96 h, read-out: Biological Assay 2: Proliferation assay (HeLa-MaTu-ADR cell line) median IC50.
A further test relates to DU145 cell line. The test is described as follows: Proliferation assay (DU145 cell line). The following applies: Homo sapiens, DU-145, 96 h, read-out: Biological Assay 2: Proliferation assay (DU145 cell line) median IC50.
In a further test the test system is Caco2 cell line. The test can be described thus: Proliferation assay (Caco2 cell line). The following applies: Homo sapiens, Caco-2, 96 h, read-out: Biological Assay 2: Proliferation assay (Caco2 cell line) median IC50.
Setting [2] is: read-out: Biological Assay 2: Proliferation assay (HeLa cell line) median IC50.
Where [3] appears, read: TR-FRET, read-out: Biological Assay 1: Bub1 kinase assay median IC50.
[4] abbreviates: Biological Assay 1: Bub1 kinase assay median IC50, TR-FRET.
The mark [5] stands for this setting: read-out: Biological Assay 2: Proliferation assay (HeLa cell line) median IC50, HeLa cells, 4 days incubation, crystal violet staining.

SMILES strings stand for the structures. Like-named read-outs stand apart in the source and are kept apart here.

T1 sequence (O43683 704-1085): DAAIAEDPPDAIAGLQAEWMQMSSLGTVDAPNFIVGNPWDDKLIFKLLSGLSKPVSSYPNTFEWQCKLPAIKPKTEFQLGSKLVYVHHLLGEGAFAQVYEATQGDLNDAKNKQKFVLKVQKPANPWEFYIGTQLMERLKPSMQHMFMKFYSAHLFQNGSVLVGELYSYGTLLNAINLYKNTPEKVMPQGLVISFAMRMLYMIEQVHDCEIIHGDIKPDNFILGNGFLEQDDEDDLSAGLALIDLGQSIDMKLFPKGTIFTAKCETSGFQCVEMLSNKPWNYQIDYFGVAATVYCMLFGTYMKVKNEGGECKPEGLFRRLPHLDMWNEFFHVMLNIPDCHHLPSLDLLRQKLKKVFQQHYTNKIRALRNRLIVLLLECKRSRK
Procedure for B16F10 cell line: (§1) Cultivated tumor cells (cells were ordered from ATCC, except HeLa-MaTu and HeLa-MaTu-ADR, which were ordered from EPO-GmbH, Berlin) were plated at a density of 1000 to 5000 cells/well, depending on the growth rate of the respective cell line, in a 96-well multititer plate in 200 μL of their respective growth medium supplemented 10% fetal calf serum. After 24 hours, the cells of one plate (zero-point plate) were stained with crystal violet (see below), while the medium of the other plates was replaced by fresh culture medium (200 μl), to which the test substances were added in various concentrations (0 μM, as well as in the range of 0.001-10 μM; the final concentration of the solvent dimethyl sulfoxide was 0.5%). The cells were incubated for 4 days in the presence of test substances. Cell proliferation was determined by staining the cells with crystal violet: the cells were fixed by adding 20 μl/measuring point of an 11% glutaric aldehyde solution for 15 minutes at room temperature. After three washing cycles of the fixed cells with water, the plates were dried at room temperature. The cells were stained by adding 100 μl/measuring point of a 0.1% crystal violet solution (pH 3.0). After three washing cycles of the stained cells with water, the plates were dried at room temperature. The dye was dissolved by adding 100 μl/measuring point of a 10% acetic acid solution. Absorption was determined by photometry at a wavelength of 595 nm. The change of cell number, in percent, was calculated by normalization of the measured values to the absorption values of the zero-point plate (=0%) and the absorption of the untreated (0 μm) cells (=100%). The IC50 values were determined by means of a 4 parameter fit.
Procedure for Caco2 cell line: as §1
Procedure for DU145 cell line: as §1
Procedure for H460 cell line: as §1
Procedure for HeLa cell line: as §1
Procedure for HeLa-MaTu-ADR cell line: as §1

Take `COc1cnc(-c2cc(OC)n(Cc3ccccc3F)n2)nc1Nc1ccncc1` [Example 2-1-3, 2-[1-(2-fluorobenzyl)-5-methoxy-1H-pyrazol-3-yl]-5-methoxy-N-(pyridin-4-yl)pyrimidin-4-amine]: the IC50 in the test with HeLa cell line (setting [2]) was over 10000 nM; in test [1] (setting [3]), 381 nM.
In the case of `CCOc1cc(F)c(Cn2nc(-c3ncc(OCCS(C)(=O)=O)c(Nc4ccncc4)n3)c(C)c2C2CC2)c(F)c1` [Example 2-9-1, 2-[5-cyclopropyl-1-(4-ethoxy-2,6-difluorobenzyl)-4-methyl-1H-pyrazol-3-yl]-5-[2-(methylsulfonyl)ethoxy]-N-(pyridin-4-yl)pyrimidin-4-amine], the results for the IC50 (in the test on HeLa cell line (setting [2]); in test [1] (setting [4])) were 5170 nM and 7.87 nM, respectively.
Turning to `CCOc1cc(F)c(Cn2nc(-c3ncc(OC)c(Nc4ccncc4)n3)c(C)c2OC)c(F)c1` [Example 2-1-1, 2-[1-(4-ethoxy-2,6-difluorobenzyl)-5-methoxy-4-methyl-1H-pyrazol-3-yl]-5-methoxy-N-(pyridin-4-yl)pyrimidin-4-amine], the IC50 in the test with HeLa cell line (setting [2]) was 7380 nM; in test [1] (setting [4]), 6.14 nM.
Regarding `CCOc1cc(F)c(Cn2nc(-c3ncc(OC)c(Nc4ccncc4)n3)c(C)c2C2CC2)c(F)c1` [Example 2-1-12, 2-[5-cyclopropyl-1-(4-ethoxy-2,6-difluorobenzyl)-4-methyl-1H-pyrazol-3-yl]-5-methoxy-N-(pyridin-4-yl)pyrimidin-4-amine], the IC50 was found to be 2240 nM in the test on B16F10 cell line; 4380 nM in the test on HeLa cell line (setting [2]); 2620 nM with H460 cell line; 3080 nM in the test with HeLa-MaTu-ADR cell line; 6.03 nM in test [1] (setting [3]); 3090 nM in the test on DU145 cell line. The IC50 in the test with Caco2 cell line is 2130 nM.
In the case of `C=Cc1cc(-c2ncc(OC)c(Nc3ccncc3)n2)nn1Cc1ccccc1` [Example 2-1-6, 2-(1-benzyl-5-ethenyl-1H-pyrazol-3-yl)-5-methoxy-N-(pyridin-4-yl)pyrimidin-4-amine], the IC50 in the test on HeLa cell line (setting [2]) was over 10000 nM; in test [1] (setting [3]), 517 nM.
As for `CCOc1cc(F)c(Cn2nc(-c3ncc(OC)c(Nc4ccncc4C(N)=O)n3)c(C)c2C2CC2)c(F)c1` [Example 2-4-2, 4-({2-[5-cyclopropyl-1-(4-ethoxy-2,6-difluorobenzyl)-4-methyl-1H-pyrazol-3-yl]-5-methoxypyrimidin-4-yl}amino)nicotinamide], the figures for the IC50 (with HeLa cell line (setting [2]); in test [1] (setting [4])) were 3230 nM and 10.5 nM, respectively.
For `CCOc1cc(F)c(Cn2nc(-c3ncc(OCC4(CO)COC4)c(Nc4ccncc4)n3)c(C)c2C2CC2)c(F)c1` [Example 2-3-2, {3-[({2-[5-cyclopropyl-1-(4-ethoxy-2,6-difluorobenzyl)-4-methyl-1H-pyrazol-3-yl]-4-(pyridin-4-ylamino)pyrimidin-5-yl}oxy)methyl]oxetan-3-yl}methanol], the figures for the IC50 (in the test with HeLa cell line (setting [2]); in test [1] (setting [4])) were 6000 nM and 5.23 nM, respectively.
With `CCOc1cc(-c2ncc(OC)c(Nc3ccncc3)n2)nn1Cc1ccccc1F` [Example 2-1-4, 2-[5-ethoxy-1-(2-fluorobenzyl)-1H-pyrazol-3-yl]-5-methoxy-N-(pyridin-4-yl)pyrimidin-4-amine], the IC50 is over 10000 nM with HeLa cell line (setting [2]) and 638 nM in test [1] (setting [3]).
On the same counts, the results for `COc1cnc(-c2nn(Cc3ccccc3F)c(C3CC3)c2C)nc1Nc1ccncc1` [Example 2-1-10, 2-[5-cyclopropyl-1-(2-fluorobenzyl)-4-methyl-1H-pyrazol-3-yl]-5-methoxy-N-(pyridin-4-yl)pyrimidin-4-amine] are 3490 nM and 36.5 nM.
In the case of `CCOc1cc(F)c(Cn2nc(-c3ncc(OCCSC)c(Nc4ccncc4)n3)c(C)c2C2CC2)c(F)c1` [Example 2-3-4, 2-[5-cyclopropyl-1-(4-ethoxy-2,6-difluorobenzyl)-4-methyl-1H-pyrazol-3-yl]-5-[2-(methylsulfanyl)ethoxy]-N-(pyridin-4-yl)pyrimidin-4-amine], the IC50 in the test with HeLa cell line (setting [2]) stood at 5570 nM; in test [1] (setting [4]), 10.8 nM.
As for `COc1cnc(-c2nn(Cc3c(Cl)cccc3Cl)c(OC)c2C)nc1Nc1ccncc1` [Example 2-1-11, 2-[1-(2,6-dichlorobenzyl)-5-methoxy-4-methyl-1H-pyrazol-3-yl]-5-methoxy-N-(pyridin-4-yl)pyrimidin-4-amine], the IC50 with HeLa cell line (setting [2]) was 2740 nM; in test [1] (setting [3]), 7.86 nM.
In the case of `COc1cnc(-c2cc(OC)n(Cc3ccccc3F)n2)nc1Nc1ccncc1C(N)=O` [Example 2-4-1, 4-({2-[1-(2-fluorobenzyl)-5-methoxy-1H-pyrazol-3-yl]-5-methoxypyrimidin-4-yl}amino)pyridine-3-carboxamide], the figures for the IC50 (with HeLa cell line (setting [2]); in test [1] (setting [3])) were over 10000 nM and 41.5 nM, respectively.
In the case of `CCOc1cc(F)c(Cn2nc(-c3nccc(Nc4ccncc4C#N)n3)c(C)c2C2CC2)c(F)c1` [Example 2-6-6, 4-({2-[5-cyclopropyl-1-(4-ethoxy-2,6-difluorobenzyl)-4-methyl-1H-pyrazol-3-yl]pyrimidin-4-yl}amino)nicotinonitrile], the values for the IC50 (with HeLa cell line (setting [2]); in test [1] (setting [4])) were over 10000 nM and 8.77 nM, respectively.
On to `COc1cnc(-c2cc(OC)n(Cc3ccccc3F)n2)nc1Nc1ccncc1C#N` [Example 2-1-7, 4-({2-[1-(2-fluorobenzyl)-5-methoxy-1H-pyrazol-3-yl]-5-methoxypyrimidin-4-yl}amino)pyridine-3-carbonitrile], for which the values for the IC50 (in the test on HeLa cell line (setting [2]); in test [1] (setting [3])) were over 10000 nM and 1420 nM, respectively.
In the case of `CCOc1cc(F)c(Cn2nc(-c3ncc(OCC[S+](C)[O-])c(Nc4ccncc4)n3)c(C)c2C2CC2)c(F)c1` (racemic) [Example 2-8-1, 2-[5-cyclopropyl-1-(4-ethoxy-2,6-difluorobenzyl)-4-methyl-1H-pyrazol-3-yl]-5-[2-(methylsulfinyl)ethoxy]-N-(pyridin-4-yl)pyrimidin-4-amine], the figures for the IC50 (in the test on HeLa cell line (setting [5]); in test [1] (setting [3])) were 3930 nM and 4.19 nM, respectively.
On the same counts, the results for `CCOc1cc(F)c(Cn2nc(-c3ncc(OCCC[S+](C)[O-])c(Nc4ccncc4)n3)c(C)c2C2CC2)c(F)c1` (stereo not drawn) [Example 2-8-4, 2-[5-cyclopropyl-1-(4-ethoxy-2,6-difluorobenzyl)-4-methyl-1H-pyrazol-3-yl]-5-[3-(methylsulfinyl)propoxy]-N-(pyridin-4-yl)pyrimidin-4-amine] are 4310 nM and 7.9 nM.
As to `CCOc1cc(F)c(Cn2nc(-c3nccc(Nc4ccncc4C(N)=O)n3)c(C)c2C2CC2)c(F)c1` [Example 2-4-3, 4-({2-[5-cyclopropyl-1-(4-ethoxy-2,6-difluorobenzyl)-4-methyl-1H-pyrazol-3-yl]pyrimidin-4-yl}amino)nicotinamide], the IC50 in the test with HeLa cell line (setting [2]) was 4460 nM; in test [1] (setting [4]), 9.32 nM.
In the case of `CCOc1cc(F)c(Cn2nc(-c3ncc(OCCN(C)C)c(Nc4ccncc4)n3)c(C)c2C2CC2)c(F)c1` [Example 2-3-1, 2-[5-cyclopropyl-1-(4-ethoxy-2,6-difluorobenzyl)-4-methyl-1H-pyrazol-3-yl]-5-[2-(dimethylamino)ethoxy]-N-(pyridin-4-yl)pyrimidin-4-amine], the IC50 in the test with B16F10 cell line was determined as 422 nM; in the test with HeLa cell line (setting [2]) it was 3450 nM; with H460 cell line, 1460 nM; with HeLa-MaTu-ADR cell line it was 1260 nM; in test [1] (setting [4]), 7.45 nM; with DU145 cell line, 3200 nM. Besides, the IC50 in the test with Caco2 cell line is 1940 nM.
For `CCOc1cc(F)c(Cn2nc(-c3ncc(O)c(Nc4ccncc4)n3)c(C)c2C2CC2)c(Sc2ccccc2)c1` [Example 2-2-2, 2-{5-cyclopropyl-1-[4-ethoxy-2-fluoro-6-(phenylsulfanyl)benzyl]-4-methyl-1H-pyrazol-3-yl}-4-(pyridin-4-ylamino)pyrimidin-5-ol], the IC50 was determined as 4970 nM in the test with HeLa cell line (setting [5]) and 53.9 nM in test [1] (setting [3]).
